# Test results: US20240245674A1, “DIAGNOSTIC METHODS AND COMPOSITIONS FOR TREATMENT OF CANCER” (LINNAEUS THERAPEUTICS, INC., priority 2021, published 2024)
# Key:
# Type in all cases: in vivo, human
# [1] = LNS8801 pharmacokinetics in patients with advanced cancer (plasma concentration by mass spectrometry)
# Experimental: Patients with advanced cancer were dosed with 10, 40, and 125 mg of LNS8801 in a capsule on three consecutive days/week. Blood was collected from patients pre-dose and at 0.5, 1, 2, 4, 7, 10, and 24 hours after dosing. Samples were analyzed by mass spectrometry for the concentration of LNS8801. […] LNS8801 is well absorbed, producing plasma exposures that are predicted to be efficacious, even at the lowest dose evaluated. Half-life in humans is approximately 10 hours.
# [2] = tested on: c-Myc positive tumor cells; assay: c-Myc immunohistochemistry on pre- and on-treatment tumor biopsies; conditions: on-treatment biopsies 8-19 days after start vs pre-treatment; most samples
# Source text: Pre-treatment biopsies were collected within 28 days of initiating treatment, and on-treatment biopsies were collected 8-19 days after LNS8801 treatment began. Tumor samples were formalin-fixed, paraffin-embedded, sectioned, and assessed for c-Myc positive tumor cells by immunohistochemistry by a blinded pathologist.
# [3] = tested on: prolactin (systemic marker of GPER activity); assay: Prolactin induction in blood of patients after LNS8801 dosing, versus best RECIST response
# Experimental: Blood was collected from patients pre-dose and at 0.5, 1, 2, 4, 7, and 10 hours after dosing and analyzed for the concentration of prolactin. Prolactin induction was calculated by dividing the average of the 4 hour through 10 hour timepoints by the average of pre-dose to 2 hour timepoints. Prolactin-induction was plotted with the best RECIST response of target lesions, and linear regression was performed.
# Blood was collected from patients pre-dose and 0.5, 1, 2, 4, 7, and 10 hours after dosing and analyzed for the concentration of prolactin (PRLX). Prolactin induction was calculated by dividing the average of the 4 hour through 10 hour timepoints by the average of pre-dose to 2 hour timepoints.
compound,measurement,setting,value
"CC(=O)c1ccc2c(c1)[C@@H]1C=CC[C@@H]1[C@H](c1cc3c(cc1Br)OCO3)N2 [LNS8801, 1-((3aS,4R,9bR)-4-(6-bromobenzo[d][1,3]dioxol-5-yl)-3a,4,5,9b-tetrahydro-3H-cyclopenta[c]quinolin-8-yl)ethan-1-one]",Absorption / plasma exposure,"[1]; 10, 40, 125 mg capsule",well absorbed
same,half-life,"[1]; human, plasma, oral, humans, 10, 40, 125 mg capsule, three consecutive days/week",~10 h
same,Change in c-Myc positive tumor cells after treatment,[2],dramatic depletion in c-Myc positive tumor cells
same,Patients lacking a prolactin response (<1.25-fold induction),"[3]; evaluable patients, every such patient had progressive disease",35%
same,Change in prolactin levels on treatment,[3]; patients with progressive disease under RECIST,reduction or no change in prolactin levels
